# Laboratory results published in PubChem BioAssay (NCI).
# Where “and” joins values, the source holds several entries; their conditions need not be identical. Identical values can stand only once.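 Where inhibition never reached the appropriate level, the endpoint shown equals the highest concentration tested. Otherwise, values were interpolated linearly from a five-concentration, 48-hour dose response in 96-well plates. GI50 is the concentration that inhibits growth by half. The concentration for full growth arrest is given as TGI.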
# Tests used:
# Test in all cases: NCI tumour cell line growth inhibition, 48 h
# 786-0 renal = tested on: 786-0 renal
# A498 renal = tested on: A498 renal
# A549 NSCLC = tested on: A549 NSCLC
# ACHN renal = tested on: ACHN renal
# CAKI-1 renal = tested on: CAKI-1 renal
# COLO 205 colon = tested on: COLO 205 colon
# DLD-1 colon = tested on: DLD-1 colon
# DMS 114 small cell lung = tested on: DMS 114 small cell lung
# EKVX NSCLC = tested on: EKVX NSCLC
# HCT-116 colon = tested on: HCT-116 colon
# HCT-15 colon = tested on: HCT-15 colon
# HL-60(TB) leukemia = tested on: HL-60(TB) leukemia
# HOP-62 NSCLC = tested on: HOP-62 NSCLC
# HOP-92 NSCLC = tested on: HOP-92 NSCLC
# HT29 colon = tested on: HT29 colon
# IGROV1 ovarian = tested on: IGROV1 ovarian
# KM12 colon = tested on: KM12 colon
# LOX IMVI melanoma = tested on: LOX IMVI melanoma
# LXFL 529 NSCLC = tested on: LXFL 529 NSCLC
# M14 melanoma = tested on: M14 melanoma
# M19-MEL melanoma = tested on: M19-MEL melanoma
# NCI-H226 lung = tested on: NCI-H226 lung
# NCI-H23 lung = tested on: NCI-H23 lung
# NCI-H460 lung = tested on: NCI-H460 lung
# OVCAR-3 ovarian = tested on: OVCAR-3 ovarian
# OVCAR-4 ovarian = tested on: OVCAR-4 ovarian
# OVCAR-5 ovarian = tested on: OVCAR-5 ovarian
# OVCAR-8 ovarian = tested on: OVCAR-8 ovarian
# RPMI-8226 leukemia = tested on: RPMI-8226 leukemia
# RXF 393 renal = tested on: RXF 393 renal
# SF-295 CNS = tested on: SF-295 CNS
# SF-539 CNS = tested on: SF-539 CNS
# SK-MEL-2 melanoma = tested on: SK-MEL-2 melanoma
# SK-MEL-28 melanoma = tested on: SK-MEL-28 melanoma
# SK-MEL-5 melanoma = tested on: SK-MEL-5 melanoma
# SK-OV-3 ovarian = tested on: SK-OV-3 ovarian
# SN12C renal = tested on: SN12C renal
# SNB-19 CNS = tested on: SNB-19 CNS
# SNB-78 CNS = tested on: SNB-78 CNS
# SW-620 colon = tested on: SW-620 colon
# U251 CNS = tested on: U251 CNS
# UACC-257 melanoma = tested on: UACC-257 melanoma
# UACC-62 melanoma = tested on: UACC-62 melanoma
# UO-31 renal = tested on: UO-31 renal
# CCRF-CEM leukemia = tested on: CCRF-CEM leukemia
# DMS 273 small cell lung = tested on: DMS 273 small cell lung
# DU-145 prostate = tested on: DU-145 prostate
# HCC-2998 colon = tested on: HCC-2998 colon
# HS 578T breast = tested on: HS 578T breast
# K-562 leukemia = tested on: K-562 leukemia
# KM20L2 colon = tested on: KM20L2 colon
# MCF7 breast = tested on: MCF7 breast
# MDA-MB-435 = tested on: MDA-MB-435
# MDA-N = tested on: MDA-N
# MOLT-4 leukemia = tested on: MOLT-4 leukemia
# NCI-H522 lung = tested on: NCI-H522 lung
# NCI/ADR-RES ovarian = tested on: NCI/ADR-RES ovarian
# PC-3 prostate = tested on: PC-3 prostate
# SF-268 CNS = tested on: SF-268 CNS
# SNB-75 CNS = tested on: SNB-75 CNS
# SR leukemia = tested on: SR leukemia
# TK-10 renal = tested on: TK-10 renal
smiles,measurement,setting,value
O=C(Nc1ccc(Cl)cc1Cl)C(=O)C(C(=O)c1ccc2ccccc2c1)C1OC(=O)c2ccccc21 (configuration not stated),TGI,786-0 renal,19.5 µM
same,TGI,A498 renal,20.2 µM
same,TGI,A549 NSCLC,73.6 µM
same,TGI,ACHN renal,> 100 µM
same,TGI,CAKI-1 renal,83 µM
same,TGI,COLO 205 colon,57 µM
same,TGI,DLD-1 colon,30.9 µM
same,TGI,DMS 114 small cell lung,46.2 µM
same,TGI,EKVX NSCLC,35.9 µM
same,TGI,HCT-116 colon,18 µM
same,TGI,HCT-15 colon,42.3 µM
same,TGI,HL-60(TB) leukemia,23.9 µM
same,TGI,HOP-62 NSCLC,27.8 µM
same,TGI,HOP-92 NSCLC,8.92 µM
same,TGI,HT29 colon,33.1 µM
same,TGI,IGROV1 ovarian,57.7 µM
same,TGI,KM12 colon,31.9 µM
same,TGI,LOX IMVI melanoma,24.9 µM
same,TGI,LXFL 529 NSCLC,17.6 µM
same,TGI,M14 melanoma,28 µM
same,TGI,M19-MEL melanoma,30.3 µM
same,TGI,NCI-H226 lung,6.33 µM
same,TGI,NCI-H23 lung,13.1 µM
same,TGI,NCI-H460 lung,17.3 µM
same,TGI,OVCAR-3 ovarian,26.1 µM
same,TGI,OVCAR-4 ovarian,35.2 µM
same,TGI,OVCAR-5 ovarian,19.6 µM
same,TGI,OVCAR-8 ovarian,34.6 µM
same,TGI,RPMI-8226 leukemia,> 100 µM
same,TGI,RXF 393 renal,11.7 µM
same,TGI,SF-295 CNS,19.7 µM
same,TGI,SF-539 CNS,11.7 µM
same,TGI,SK-MEL-2 melanoma,31.7 µM
same,TGI,SK-MEL-28 melanoma,15.3 µM
same,TGI,SK-MEL-5 melanoma,26.1 µM
same,TGI,SK-OV-3 ovarian,> 100 µM
same,TGI,SN12C renal,30.7 µM
same,TGI,SNB-19 CNS,22.1 µM
same,TGI,SNB-78 CNS,78.4 µM
same,TGI,SW-620 colon,24.9 µM
same,TGI,U251 CNS,16.2 µM
same,TGI,UACC-257 melanoma,65.3 µM
same,TGI,UACC-62 melanoma,46.7 µM
same,TGI,UO-31 renal,27 µM
COc1cc(/C=C\c2ccc(C)cc2)cc(OC)c1OC,TGI,786-0 renal,25.2 µM
same,TGI,A549 NSCLC,> 100 µM
same,TGI,ACHN renal,> 100 µM
same,GI50,CAKI-1 renal,0.0235 µM
same,TGI,CAKI-1 renal,> 53.8 µM
same,TGI,CCRF-CEM leukemia,< 0.044 µM
same,TGI,COLO 205 colon,0.144 µM
same,TGI,DLD-1 colon,> 100 µM
same,TGI,DMS 114 small cell lung,20.8 µM
same,TGI,DMS 273 small cell lung,17.4 µM
same,TGI,DU-145 prostate,0.0843 µM
same,GI50,EKVX NSCLC,< 0.022 µM
same,TGI,EKVX NSCLC,> 100 µM
same,GI50,HCC-2998 colon,< 0.0129 µM
same,TGI,HCC-2998 colon,0.215 µM and < 0.0303 µM
same,TGI,HL-60(TB) leukemia,0.0159 µM
same,TGI,HOP-62 NSCLC,34.1 µM
same,GI50,HOP-92 NSCLC,0.0233 µM
same,TGI,HOP-92 NSCLC,4.13 µM
same,GI50,HS 578T breast,0.0358 µM
same,TGI,IGROV1 ovarian,> 100 µM
same,TGI,K-562 leukemia,11.7 µM
same,TGI,KM20L2 colon,0.000535 µM
same,TGI,LOX IMVI melanoma,38.7 µM
same,TGI,LXFL 529 NSCLC,46.1 µM
same,GI50,M19-MEL melanoma,0.0127 µM
same,TGI,M19-MEL melanoma,> 100 µM
same,TGI,MCF7 breast,> 100 µM
same,TGI,MDA-MB-435,0.0672 µM
same,TGI,MDA-N,0.00521 µM
same,TGI,MOLT-4 leukemia,0.51 µM
same,GI50,NCI-H226 lung,< 0.0134 µM
same,TGI,NCI-H226 lung,0.987 µM
same,TGI,NCI-H23 lung,0.276 µM
same,TGI,NCI-H460 lung,0.232 µM
same,TGI,NCI-H522 lung,0.013 µM
same,TGI,NCI/ADR-RES ovarian,0.111 µM and 0.158 µM
same,TGI,OVCAR-3 ovarian,0.00442 µM
same,TGI,OVCAR-4 ovarian,46.5 µM
same,TGI,OVCAR-5 ovarian,> 91.5 µM
same,GI50,PC-3 prostate,0.0173 µM
same,TGI,PC-3 prostate,> 100 µM
same,TGI,RPMI-8226 leukemia,25.2 µM
same,GI50,SF-268 CNS,< 0.0136 µM
same,TGI,SF-268 CNS,> 63.3 µM
same,GI50,SF-295 CNS,0.00818 µM
same,TGI,SF-539 CNS,0.0218 µM
same,GI50,SK-MEL-2 melanoma,0.0044 µM
same,TGI,SK-MEL-2 melanoma,36.5 µM
same,TGI,SN12C renal,> 69 µM
same,GI50,SNB-75 CNS,0.0149 µM
same,TGI,SR leukemia,0.0917 µM
same,TGI,SW-620 colon,> 100 µM
same,GI50,TK-10 renal,25.7 µM
same,TGI,TK-10 renal,> 100 µM
same,TGI,U251 CNS,0.348 µM
same,GI50,UACC-257 melanoma,< 0.021 µM
same,TGI,UACC-257 melanoma,> 76.6 µM
